Source: patent US20200375880A1, “PLANT EXTRACTS FROM THE TAGETES GENUS AND USES OF SAME” (PLANT ADVANCED TECHNOLOGIES PAT, priority 2016, published 2020)

Experiments:
cells = conditions: pre-treatment of cells with leontopodic acid, Costa et al. 2010; cited from earlier work
[1] = test system: rat primary cortical neurons; test: Survival of primary cortical neurons injured by Aβ1-42 peptide (MAP-2 staining); type: cell-based; conditions: Aβ1-42 peptide 20 μM, 24 hours, 0.1% DMSO
Description: (§1) The purpose of this study is to evaluate the effects of the root extract on rat primary cortical neurons, intoxicated by Aβ peptide according to the in vitro Alzheimer disease model described in Callizot et al., 2013 (Callizot N. et al., Operational dissection of β-amyloid cytopathic effects on cultured neurons, J Neurosci Res. 2013, 91: 706-16). The neuron survival as well as the integrity of the neuritic network are evaluated.
(§2) Four concentrations are tested: 10 ng/mL, 100 ng/mL, 1 μg/mL and 10 μg/mL of dry extract diluted in water with 0.1% of DMSO.
(§3) Rat cortical neurons are cultured as described in Singer et al., 1999 (Singer C, et al., Mitogen-activated protein kinase pathway mediates estrogen neuroprotection after glutamate toxicity in primary cortical neurons. J Neurosci. 1999, 19: 2455-2463) and Callizot et al., (2013). In summary, gravid female rats are killed by cervical dislocation after 15 days of pregnancy. The foetuses are collected and immediately placed on an ice L15 Leibovitz medium (Pan Biotech, Batch: 8810315) added with 2% of penicillin (10,000 U/mL) and a streptomycin solution (l0 mg/mL) (PS; Pan Biotech, batch: 1451013) and 1% of bovine serum albumin (BSA; Pan Biotech, batch: K180713). […] The viable cells are counted with a Neubauer cytometer, using the trypan blue exclusion test. […]

[2] = test system: neuritic network of rat primary cortical neurons; test: Neuritic network of primary cortical neurons injured by Aβ1-42 peptide (MAP-2 staining); type: cell-based; conditions: Aβ1-42 peptide 20 μM, 24 hours, 0.1% DMSO
Description: as §1, §2, §3

Compound	cell survival (cells)	production of reactive oxygen species (ROS) (cells)	neurone death induced by the peptide alone [1]	loss of the neuritic network induced by the peptide alone [2]
C[C@H](O)CC(=O)O[C@@H](C(=O)O)[C@@H](OC(=O)/C=C/c1ccc(O)c(O)c1)[C@H](OC(=O)/C=C/c1ccc(O)c(O)c1)[C@H](OC(=O)/C=C/c1ccc(O)c(O)c1)C(=O)O [leontopodic acid]	no improvement in the cell survival	decrease in the production of reactive oxygen species (ROS)		
Aβ1-42 peptide: β-amyloid peptide (Bachem) used at 20 μM to intoxicate cortical neurons			significant neurone death	significant loss of the neuritic network
